From patent publication US8329416B2, “Stabilized standards for busulfan immunoassay” (Saladax Biomedical Inc., priority 2008, dated 2012)
Like-named read-outs stand apart in the source and are kept apart here.

What was measured:
[1] = cited from earlier work
[2] = decomposition of busulfan standards in aqueous solution over time; format: physicochemical; details: FIG. 1
Protocol: In FIG. 1 a plurality of aqueous solutions of busulfan having varying concentrations of 100 ng/ml, 600 ng/ml, and 1200 ng/ml are incubated at room temperature. […] At room temperature for 5 days, more than 60% of the busulfan is decomposed.

[3] = tested on: antibodies specific for busulfan; details: antibodies from immunogens of formulae III-A and III-B; cited from earlier work
[4] = stability tests of amide of formula II standards in solution; format: physicochemical; details: for time stable: solutions 590 ng/ml to 4720 ng/ml
[5] = tested on: antibody to busulfan; assay: direct competitive ELISA for busulfan (busulfan-HRP conjugate, antibody-coated plate); format: binding
Protocol: For the purpose of determining amide of formula II equivalents to busulfan of formula I and assaying busulfan with the amide standards by Enzyme-Linked Immunosorbent Assay (ELISA) method, polystyrene microtiter plates optimized for protein binding and containing 96 well per plate were used. Each well was coated with an antibody to busulfan produced as described in U.S. Pat. No. 7,238,024 Example 7, by adding 100 μL of antibody at 7.5 μg/mL in 0.05M sodium bicarbonate, pH=9.6 and then were blocked with 400 μL of 5% sucrose, 0.2% sodium caseinate solution for 30 minutes at room temperature. After removal of the post-coat solution the plates dried at 37° C. overnight.
The cross-reactivity of the amide was determined in a direct competitive Enzyme-Linked Immunosorbent Assay (ELISA) for busulfan. This method for measuring busulfan concentrations was performed with the microtiter plates that were sensitized with busulfan antibody described in Example 3. The amide stock solution at 6 mg/mL DMF was serially diluted 5000 ng/mL and 500 ng/mL in a buffer comprising 0.02 M sodium phosphate, 0.15 M NaCl, 0.1% BSA, 0.01% Thimerosal, pH 7.2. To perform the assay 30 μL of busulfan standards from Example 1, and 30 μL of amide of formula II dilutions were pre-diluted in a 96-well plate by the addition of 180 μL of sample pre-dilution buffer consisting of 0.02 M sodium phosphate, 0.15 M NaCl, 0.5% Dextran Sulfate, 0.01% Thimerosal, pH 7.2. 50 μL of all prediluted samples were added to the antibody coated microtiter plate of Example 3. After addition of the samples 50 μL of a busulfan-HRP conjugate at 100 ng/mL in a buffer comprising to 0.02 M sodium phosphate, 0.15 M NaCl, 0.2% BSA, 0.1% ANS (8-anilino-1-naphthalene sulfonic acid), 15 ppm ProClin® Preservative 300 was added. During the following 10 minute incubation (R.T., with shaking) there is a competition between sample (busulfan or amide) and busulfan-HRP for binding with the antibody in the well. Following this incubation the wells of the plate were washed three times with 0.02 M TRIS, 0.9% NaCl, 0.5% polyethylene glycol sorbitan monooleate TWEEN® 80 and 0.001% Thimerosal, pH 7.8 to remove any material that was not bound. To detect the amount of busulfan-HRP bound to the busulfan antibody in the wells, 100 μL of TMB (TMB Liquid Substrate) a substrate for HRP was added. To develop a measurable color in the wells there was a 10 second incubation (R.T., with shaking). Following the incubation 50 μL of stop solution comprising 1.5% sodium fluoride in di H2O was added to each well to stop the color development and after 10 seconds of shaking the absorbance was determined at 650 nm with a 96-well plate reader. The amount of busulfan-HRP in a well was proportional to the absorbance measured and inversely proportional to the amount of busulfan of formulated or amide of formulated in the sample. The absorbance of the color in the wells containing busulfan was compared to that with no busulfan analyte and a standard curve was generated. […] The cross-reactivity was used to determine the concentration of amide necessary to produce a calibration curve equivalent to that of busulfan (Example 6).
Using the busulfan antibody plates (Example 3) in a direct competitive Enzyme-Linked Immunosorbent Assay (ELISA) for busulfan described in Example 4, the GC-MS verified busulfan calibrators (Example 1) were used to generate a curve from 75 ng/mL to 2000 ng/mL and the amide calibrators were read off this standard curve as unknown samples. […] The X axis represents the verified busulfan concentration and the Y axis is the amide standards expressed as busulfan equivalence factor (amide concentration value x 0.107=busulfan equivalence factor e.g. 1410 ng/mL amide x 0.107=150 ng/mL busulfan equivalence).

[6] = tested on: antibodies specific for busulfan; assay: busulfan immunoassay of U.S. Pat. No. 7,148,024; format: binding; details: across the entire dose response curve
Text: In accordance with a preferred embodiment of this invention, a competitive assay is provided utilizing the reagents and procedure disclosed in U.S. Pat. No. 7,148,024, whose disclosure is incorporated by reference In this preferred procedure, the preferred procedure as set forth in U.S. Pat. No. 7,148,024, utilized in its method antibodies produced from conjugates of an immunogenic polyamine polymer with a compound of the formula III-A:
[drawing 4] • wherein A′ is lower alkylene or lower alkenylene; • X′, Y, X, p and z are as above or mixtures thereof.
The fact that known concentrations of the amide of formula II can be calibrated with known concentrations of busulfan by means of a calibration assay can be seen from FIG. 3. […] These measured results are plotted against their relative concentrations. […] The amount or concentration of busulfan can be determined from the measured amount or concentration standards containing the amide of formula II by multiplying the measured results obtained from these amide standards by previously determined calibration factor which in the case of FIG. 3 is 0.107. In this manner one obtains the amount or concentration of busulfan in the samples based on the measured results with respect to the amide.

## CS(=O)(=O)OCCCCOS(C)(=O)=O [busulfan]
[1]; 4° C., calibrator matrix spiked with busulfan
  decomposition of busulfan calibrator: decomposes within a day
[1]; room temperature for 5 days
  busulfan decomposed: more than 60%
[2]; aqueous solution, 37° C., aqueous solutions 100, 600, 1200 ng/ml
  half-life: 14 h
[2]; room temperature for 5 days
  busulfan decomposed: more than 60%

## O=S1(=O)CCC(O)C1 (centres unmarked) [tetrahydrothiophene-3-ol-1,1-dioxide]
[3]
  reaction or binding of the busulfan antibodies with blocking metabolites: do not substantially react with or bind to

## C1CCSC1 [tetrahydrothiophene]
[3]
  reaction or binding of the busulfan antibodies with blocking metabolites: do not substantially react with or bind to

## CS(=O)(=O)NCCCCNS(C)(=O)=O [amide of formula II]
[4]; 4° C., FIG. 2
  time stable: at least 4 weeks
[4]; 45° C., FIG. 2
  time stable: at least 4 weeks
[4]; stored at 4° C. and 45° C. for at least 4 weeks, FIG. 2
  decomposition on storage: no decomposition
[4]; without any special precautions
  storage of amide solutions without significant deterioration: more than one year
[5]; FIG. 3, amide concentration x factor = busulfan equivalence
  calibration factor (busulfan equivalence factor): 0.107
[5]; amide at 705 ng/mL, FIG. 3
  busulfan calibrator concentration giving the same absorbance: 75 ng/mL
[5]; amide at 1410 ng/mL, FIG. 3
  busulfan calibrator concentration giving the same absorbance: 150 ng/mL
[5]; amide at 2820 ng/mL, FIG. 3
  busulfan calibrator concentration giving the same absorbance: 300 ng/mL
[5]; amide at 5640 ng/mL, FIG. 3
  busulfan calibrator concentration giving the same absorbance: 600 ng/mL
[5]; amide at 11280 ng/mL, FIG. 3
  busulfan calibrator concentration giving the same absorbance: 200 ng/mL
[5]; amide at 18800 ng/mL, FIG. 3
  busulfan calibrator concentration giving the same absorbance: 2000 ng/mL
[5]; recovery compared to busulfan standard, 5000 ng/mL amide
  cross-reactivity: 10.7%
[6]
  relative cross reactivity as compared to busulfan: 17.5%

## O=S1(=O)CCCC1 [tetramethylene sulfone]
[3]
  reaction or binding of the busulfan antibodies with blocking metabolites: do not substantially react with or bind to
